# Patent publication US9708318B2, “Bicyclic heterocycles as FGFR4 inhibitors” (Incyte Corporation, priority 2015, dated 2017)
# Like-named read-outs stand apart in the source and are kept apart here.
# What was measured:
# FGFR2 = FGFR2 (Homo sapiens (Human), UniProt P21802); assay: FGFR Enzymatic Assay (FRET peptide phosphorylation), FGFR2; assay type: biochemical
# Description: (§1) The inhibitor potency of the exemplified compounds was measured in an enzyme assay that measures peptide phosphorylation using FRET measurements to detect product formation. Inhibitors were serially diluted in DMSO and a volume of 0.5 μL was transferred to the wells of a 384-well plate.
# (§2) The enzymes were purchased from Millipore or Invitrogen.
# (§3) GraphPad prism3 was used to analyze the data.
# FGFR3 enzyme = FGFR3 enzyme (Homo sapiens (Human), UniProt P22607); assay: FGFR Enzymatic Assay (FRET peptide phosphorylation), FGFR3; assay type: biochemical; conditions: for IC50: read-out: FGFR3 IC50; for FGFR1/FGFR3 IC50 ratio / FGFR4/FGFR3 IC50 ratio: FGFR3 selectivity
# Description: as §1, §3
# FGFR4 = FGFR4 (Homo sapiens (Human), UniProt P22455); assay: FGFR Enzymatic Assay (FRET peptide phosphorylation), FGFR4; assay type: biochemical; conditions: for FGFR1/FGFR4 IC50 ratio / FGFR2/FGFR4 IC50 ratio / FGFR3/FGFR4 IC50 ratio: FGFR4 selectivity
# Description: as §1, §2, §3
# FGFR1 = FGFR1 (Homo sapiens (Human), UniProt P11362); assay: FGFR Enzymatic Assay (FRET peptide phosphorylation), FGFR1
# [1] = pre-incubated for 5 to 10 minutes
# [2] = FGFR1 IC50 (nM), pre-incubated for 4 hours
# [3] = read-out: FGFR1 IC50, pre-incubated for 5 to 10 minutes
# [4] = read-out: FGFR1 IC50, pre-incubated for 4 hours
# Sequence of FGFR3 enzyme (P22607 23-806): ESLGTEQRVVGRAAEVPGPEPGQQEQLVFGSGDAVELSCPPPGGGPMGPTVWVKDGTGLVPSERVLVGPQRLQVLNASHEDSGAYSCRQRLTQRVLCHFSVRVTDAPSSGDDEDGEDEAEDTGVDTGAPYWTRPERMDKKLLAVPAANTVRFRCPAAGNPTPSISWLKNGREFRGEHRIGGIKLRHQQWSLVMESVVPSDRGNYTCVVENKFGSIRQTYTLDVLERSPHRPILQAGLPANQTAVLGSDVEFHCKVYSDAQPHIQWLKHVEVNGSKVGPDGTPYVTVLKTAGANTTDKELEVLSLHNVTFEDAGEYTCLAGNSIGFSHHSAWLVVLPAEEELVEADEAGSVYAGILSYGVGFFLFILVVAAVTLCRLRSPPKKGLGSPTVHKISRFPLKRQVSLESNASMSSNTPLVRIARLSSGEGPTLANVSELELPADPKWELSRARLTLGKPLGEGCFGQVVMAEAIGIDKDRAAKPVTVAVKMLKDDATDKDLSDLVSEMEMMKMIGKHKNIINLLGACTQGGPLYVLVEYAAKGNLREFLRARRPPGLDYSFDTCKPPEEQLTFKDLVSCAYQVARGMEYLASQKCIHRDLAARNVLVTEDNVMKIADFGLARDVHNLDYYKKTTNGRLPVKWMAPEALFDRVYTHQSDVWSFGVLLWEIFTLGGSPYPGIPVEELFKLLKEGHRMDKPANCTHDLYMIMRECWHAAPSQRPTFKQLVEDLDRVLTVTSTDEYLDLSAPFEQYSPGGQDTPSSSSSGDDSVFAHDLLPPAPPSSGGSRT
# Sequence of FGFR1 (P11362 22-822): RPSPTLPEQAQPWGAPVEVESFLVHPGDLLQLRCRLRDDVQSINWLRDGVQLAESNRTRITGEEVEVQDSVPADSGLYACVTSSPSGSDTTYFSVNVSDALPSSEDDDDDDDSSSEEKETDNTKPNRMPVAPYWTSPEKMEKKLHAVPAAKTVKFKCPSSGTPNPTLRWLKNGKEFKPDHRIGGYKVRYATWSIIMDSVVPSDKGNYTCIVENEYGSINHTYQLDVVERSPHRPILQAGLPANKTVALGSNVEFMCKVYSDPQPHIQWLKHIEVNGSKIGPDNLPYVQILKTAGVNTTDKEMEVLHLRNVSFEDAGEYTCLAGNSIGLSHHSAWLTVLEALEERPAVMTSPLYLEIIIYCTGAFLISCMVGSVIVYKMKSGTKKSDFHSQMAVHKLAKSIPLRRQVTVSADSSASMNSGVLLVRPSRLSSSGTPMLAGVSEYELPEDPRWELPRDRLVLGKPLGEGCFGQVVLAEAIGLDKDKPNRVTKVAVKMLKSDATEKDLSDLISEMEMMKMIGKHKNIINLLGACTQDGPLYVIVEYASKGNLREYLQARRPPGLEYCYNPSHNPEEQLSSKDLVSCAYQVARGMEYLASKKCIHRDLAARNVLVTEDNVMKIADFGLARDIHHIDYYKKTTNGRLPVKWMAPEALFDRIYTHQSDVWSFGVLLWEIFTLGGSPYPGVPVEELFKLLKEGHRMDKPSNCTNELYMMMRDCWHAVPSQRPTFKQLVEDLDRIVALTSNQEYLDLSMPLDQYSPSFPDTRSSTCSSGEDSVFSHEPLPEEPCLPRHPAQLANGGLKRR
# Sequence of FGFR4 (P22455 22-802): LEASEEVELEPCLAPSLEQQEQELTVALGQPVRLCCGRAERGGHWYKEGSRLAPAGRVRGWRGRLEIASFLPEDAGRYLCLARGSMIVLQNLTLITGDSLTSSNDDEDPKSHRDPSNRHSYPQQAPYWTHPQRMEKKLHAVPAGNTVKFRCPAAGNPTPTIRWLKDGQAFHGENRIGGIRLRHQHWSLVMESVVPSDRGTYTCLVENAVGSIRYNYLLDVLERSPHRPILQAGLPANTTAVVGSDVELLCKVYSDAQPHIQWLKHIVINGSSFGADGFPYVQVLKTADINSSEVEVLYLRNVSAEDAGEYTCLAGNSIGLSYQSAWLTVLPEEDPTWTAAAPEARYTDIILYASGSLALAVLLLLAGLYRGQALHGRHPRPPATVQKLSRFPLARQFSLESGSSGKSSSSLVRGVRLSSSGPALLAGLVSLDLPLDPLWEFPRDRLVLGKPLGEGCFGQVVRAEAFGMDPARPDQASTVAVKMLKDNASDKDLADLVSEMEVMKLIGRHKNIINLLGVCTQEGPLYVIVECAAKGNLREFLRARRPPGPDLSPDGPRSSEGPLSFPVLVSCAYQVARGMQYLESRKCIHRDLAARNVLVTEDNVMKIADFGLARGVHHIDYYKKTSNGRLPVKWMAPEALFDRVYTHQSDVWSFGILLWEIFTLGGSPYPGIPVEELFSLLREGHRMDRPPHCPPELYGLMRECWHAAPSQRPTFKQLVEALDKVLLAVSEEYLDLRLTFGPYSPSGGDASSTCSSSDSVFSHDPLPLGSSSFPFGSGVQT
# Sequence of FGFR2 (P21802 22-821): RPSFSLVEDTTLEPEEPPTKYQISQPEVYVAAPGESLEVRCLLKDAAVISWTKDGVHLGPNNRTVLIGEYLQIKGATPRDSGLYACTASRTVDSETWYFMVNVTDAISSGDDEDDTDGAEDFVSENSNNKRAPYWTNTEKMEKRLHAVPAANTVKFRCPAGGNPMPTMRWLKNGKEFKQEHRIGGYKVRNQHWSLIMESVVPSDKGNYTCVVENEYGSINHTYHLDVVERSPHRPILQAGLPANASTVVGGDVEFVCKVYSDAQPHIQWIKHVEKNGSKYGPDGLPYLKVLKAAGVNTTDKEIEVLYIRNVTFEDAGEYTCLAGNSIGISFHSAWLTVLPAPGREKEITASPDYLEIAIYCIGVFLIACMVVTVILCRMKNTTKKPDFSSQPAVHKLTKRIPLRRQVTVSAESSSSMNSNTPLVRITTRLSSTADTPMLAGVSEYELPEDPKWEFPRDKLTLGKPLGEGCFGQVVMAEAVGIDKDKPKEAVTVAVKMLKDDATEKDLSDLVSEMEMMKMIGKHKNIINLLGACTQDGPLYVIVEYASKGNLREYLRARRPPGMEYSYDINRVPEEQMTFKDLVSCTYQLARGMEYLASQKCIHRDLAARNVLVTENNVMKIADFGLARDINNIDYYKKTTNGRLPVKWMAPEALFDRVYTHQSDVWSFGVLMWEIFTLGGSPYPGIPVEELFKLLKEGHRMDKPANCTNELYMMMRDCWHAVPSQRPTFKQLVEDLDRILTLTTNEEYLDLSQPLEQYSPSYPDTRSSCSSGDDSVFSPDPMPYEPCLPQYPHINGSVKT
Compound,IC50 (FGFR2; [1]) [nM],IC50 (FGFR3 enzyme; [1]) [nM],IC50 (FGFR4; [1]) [nM],"IC50 (FGFR1; FGFR1 IC50 (nM), pre-incubated for 5 to 10 minutes) [nM]",IC50 (FGFR2; pre-incubated for 4 hours) [nM],IC50 (FGFR3 enzyme; pre-incubated for 4 hours) [nM],FGFR1/FGFR4 IC50 ratio (FGFR4; pre-incubated for 4 hours),FGFR2/FGFR4 IC50 ratio (FGFR4; pre-incubated for 4 hours),FGFR3/FGFR4 IC50 ratio (FGFR4; pre-incubated for 4 hours),IC50 (FGFR4; pre-incubated for 4 hours) [nM],IC50 (FGFR1; [2]) [nM],FGFR1/FGFR3 IC50 ratio (FGFR3 enzyme; pre-incubated for 4 hours),FGFR4/FGFR3 IC50 ratio (FGFR3 enzyme; pre-incubated for 4 hours),FGFR1/FGFR4 IC50 ratio (FGFR4; [1]),FGFR2/FGFR4 IC50 ratio (FGFR4; [1]),FGFR3/FGFR4 IC50 ratio (FGFR4; [1]),IC50 (FGFR1; [3]) [nM],IC50 (FGFR1; [4]) [nM]
"COc1cc(OC)c(F)c(N2Cc3cnc(-c4ccc(C5(C#N)CCC5)nc4)cc3N(c3ccccn3)C2=O)c1F [Example 137, 1-(5-(3-(2,6-difluoro-3,5-dimethoxyphenyl)-2-oxo-1-(pyridin-2-yl)-1,2,3,4-tetrahydropyrido[4,3-d]pyrimidin-7-yl)pyridin-2-yl)cyclobutanecarbonitrile]",10 to 30,10 to 30,30 to 200,30 to 200,–,–,–,–,–,–,–,–,–,–,–,–,–,–
"COc1cc(OC)c(F)c(N2Cc3cnc(-c4[nH]ncc4C#N)cc3C3(CC3)C2=O)c1F [Example 171, 5-(2′-(2,6-difluoro-3,5-dimethoxyphenyl)-3′-oxo-2′,3′-dihydro-1′H-spiro[cyclopropane-1,4′-[2,7]naphthyridine]-6′-yl)-1H-pyrazole-4-carbonitrile]",–,–,–,–,30 to 200,30 to 200,>10,>10,>10,< 10,30 to 200,–,–,–,–,–,–,–
"COc1cc(OC)c(F)c(N2Cc3cnc(-c4cn(C)nc4C)cc3N(Cc3ccc4c(c3)OCCO4)C2=O)c1F [Example 38, 3-(2,6-difluoro-3,5-dimethoxyphenyl)-1-((2,3-dihydrobenzo[b][1,4]dioxin-6-yl)methyl)-7-(1,3-dimethyl-1H-pyrazol-4-yl)-3,4-dihydropyrido[4,3-d]pyrimidin-2(1H)-one]",–,–,–,–,10 to 30,< 10,–,–,–,30 to 200,30 to 200,>5,>5,–,–,–,–,–
"CCn1cc(CN2C(=O)N(c3c(F)c(OC)cc(OC)c3F)Cc3cnc(-c4cn(C)nc4C)cc32)cn1 [Example 39, 3-(2,6-difluoro-3,5-dimethoxyphenyl)-7-(1,3-dimethyl-1H-pyrazol-4-yl)-1-((1-ethyl-1H-pyrazol-4-yl)methyl)-3,4-dihydropyrido[4,3-d]pyrimidin-2(1H)-one]",–,–,–,–,< 10,< 10,–,–,–,< 10,10 to 30,>10,>10,–,–,–,–,–
"COc1cc(N2C(=O)N(c3c(F)c(OC)cc(OC)c3F)Cc3cnc(-c4cn(C)nc4C)cc32)ccc1C#N [Example 81, 4-(3-(2,6-difluoro-3,5-dimethoxyphenyl)-7-(1,3-dimethyl-1H-pyrazol-4-yl)-2-oxo-3,4-dihydropyrido[4,3-d]pyrimidin-1(2H)-yl)-2-methoxybenzonitrile]",–,–,–,–,10 to 30,10 to 30,–,–,–,> 200,30 to 200,>5,>10,–,–,–,–,–
"COc1cc(OC)c(F)c(N2Cc3cnc(-c4cn(C)nc4C)cc3N(c3ccn(C)n3)C2=O)c1F [Example 100, 3-(2,6-difluoro-3,5-dimethoxyphenyl)-7-(1,3-dimethyl-1H-pyrazol-4-yl)-1-(1-methyl-1H-pyrazol-3-yl)-3,4-dihydropyrido[4,3-d]pyrimidin-2(1H)-one]",–,–,–,–,10 to 30,10 to 30,–,–,–,30 to 200,30 to 200,>5,>5,–,–,–,–,–
"COc1cc(OC)c(F)c(N2Cc3cnc(-c4cncc(CN5CCOCC5)c4)cc3C3(CC3)C2=O)c1F [Example 16, 2′-(2,6-difluoro-3,5-dimethoxyphenyl)-6′-(5-(morpholinomethyl)pyridin-3-yl)-1′H-spiro[cyclopropane-1,4′-[2,7]naphthyridin]-3′(2′H)-one]",30 to 200,30 to 200,< 10,–,30 to 200,30 to 200,>50,>25,>10,< 10,–,>1,–,>25,>10,>10,> 200,> 200
"CCN1C(=O)N(c2cc(OC)cc(C(=O)NC)c2F)Cc2cnc(-c3ccc(C4(C#N)CCC4)nc3)cc21 [Example 28, 3-(7-(6-(1-cyanocyclobutyl)pyridin-3-yl)-1-ethyl-2-oxo-1,2-dihydropyrido[4,3-d]pyrimidin-3(4H)-yl)-2-fluoro-5-methoxy-N-methylbenzamide]",–,–,–,–,30 to 200,30 to 200,–,–,–,> 200,–,–,–,–,–,–,–,> 200
"CCN1C(=O)N(c2c(F)c(OC)cc(OC)c2F)Cc2cnc(-c3ccccc3)cc21 [Example 22, 3-(2,6-difluoro-3,5-dimethoxyphenyl)-1-ethyl-7-phenyl-3,4-dihydropyrido[4,3-d]pyrimidin-2(1H)-one]",–,–,–,–,10 to 30,10 to 30,–,–,–,10 to 30,30 to 200,>5,–,–,–,–,–,–
"COc1cc(OC)c(F)c(N2Cc3cnc(-c4cn(C)nc4C)cc3N(c3ccc(C(=O)N(C)C)cc3)C2=O)c1F [Example 113, 4-(3-(2,6-difluoro-3,5-dimethoxyphenyl)-7-(1,3-dimethyl-1H-pyrazol-4-yl)-2-oxo-3,4-dihydropyrido[4,3-d]pyrimidin-1(2H)-yl)-N,N-dimethylbenzamide]",–,–,–,–,< 10,10 to 30,–,–,–,30 to 200,30 to 200,>3,>5,–,–,–,–,–
"COc1cc(OC)c(F)c(N2Cc3cnc(-c4cncc(C(=O)N5CCOCC5)c4)cc3C3(CC3)C2=O)c1F [Example 13, 2′-(2,6-difluoro-3,5-dimethoxyphenyl)-6′-(5-(morpholine-4-carbonyl)pyridin-3-yl)-1′H-spiro[cyclopropane-1,4′-[2,7]naphthyridin]-3′(2′H)-one]",30 to 200,30 to 200,< 10,–,30 to 200,30 to 200,>50,>25,>10,< 10,–,>3,–,>50,>20,>10,> 200,> 200
"CCN1C(=O)N(c2c(F)c(OC)cc(OC)c2F)Cc2cnc(-c3ccc(C4(C#N)CC4)cc3)cc21 [Example 183, 1-(4-(3-(2,6-difluoro-3,5-dimethoxyphenyl)-1-ethyl-2-oxo-1,2,3,4-tetrahydropyrido[4,3-d]pyrimidin-7-yl)phenyl)cyclopropanecarbonitrile]",–,–,–,–,< 10,< 10,–,–,–,30 to 200,10 to 30,>3,>10,–,–,–,–,–
"COc1cc(OC)c(F)c(N2Cc3cnc(-c4cn(C)nc4C)cc3N(c3ccc(F)c(C#N)c3)C2=O)c1F [Example 66, 5-(3-(2,6-difluoro-3,5-dimethoxyphenyl)-7-(1,3-dimethyl-1H-pyrazol-4-yl)-2-oxo-3,4-dihydropyrido[4,3-d]pyrimidin-1(2H)-yl)-2-fluorobenzonitrile]",–,–,–,–,30 to 200,10 to 30,–,–,–,30 to 200,–,>5,>5,–,–,–,–,> 200
"COc1cc(OC)c(F)c(N2Cc3cnc(-c4cnn(C5CCN(C(C)=O)C5)c4)cc3C3(CC3)C2=O)c1F (centres unmarked) [Example 150, 6′-(1-(1-acetylpyrrolidin-3-yl)-1H-pyrazol-4-yl)-2′-(2,6-difluoro-3,5-dimethoxyphenyl)-1′H-spiro[cyclopropane-1,4′-[2,7]naphthyridin]-3′(2′H)-one]",–,–,–,–,< 10,< 10,–,–,–,< 10,–,>5,>5,–,–,–,–,< 10
"COc1cc(OC)c(F)c(N2Cc3cnc(-c4cn(C)nc4C)cc3N(c3ccc(-c4nnc(C)o4)cc3)C2=O)c1F [Example 115, 3-(2,6-difluoro-3,5-dimethoxyphenyl)-7-(1,3-dimethyl-1H-pyrazol-4-yl)-1-(4-(5-methyl-1,3,4-oxadiazol-2-yl)phenyl)-3,4-dihydropyrido[4,3-d]pyrimidin-2(1H)-one]",–,–,–,–,< 10,< 10,–,–,–,30 to 200,30 to 200,>3,>5,–,–,–,–,–
